Laboratory results taken from article PMC4666783 (Organic & biomolecular chemistry, 2015).
Like-named read-outs stand apart in the source and are kept apart here.

Tests used:
HIV-1 = experiment: Antiviral activity, MTT assay; assay type: cell-based; conditions: for IC50: Human immunodeficiency virus 1, read-out: IC50 (antiviral); for antiviral potency: result in words, comparator as stated
HIV-1 protease = HIV-1 protease (Human immunodeficiency virus type 1 group M subtype B, UniProt P04585); experiment: HIV-1 protease enzyme inhibition, assay developed by Toth and Marshall; assay type: biochemical; conditions: for enzyme inhibitory activity: result in words, comparator as stated
[1] = system: HIVDRV^RP20 drug resistant strains of HIV; experiment: microbe, parasite or virus in culture; assay type: cell-based, HIV-1

## CC(C)CN(C[C@@H](O)[C@H](Cc1ccccc1)NC(=O)O[C@H]1CO[C@H]2OCC[C@H]21)S(=O)(=O)c1ccc(N)cc1 [Darunavir, darunavir, reference compound]
HIV-1
  IC50: 1600 pM

## COc1ccc(S(=O)(=O)N(CC(C)C)C[C@@H](O)[C@H](Cc2ccccc2)NC(=O)O[C@H]2CCO[C@H]3OC[C@@H](OC)[C@H]32)cc1 [Inhibitor 30a, (3S,3aR,4S,7aS)-3-Methoxyhexahydro-2H-furo[2,3-b]pyran-4-yl (2S,3R)-3-hydroxy-4-(N-isobutyl-4-methoxyphenylsulfonamido)-1-phenylbutan-2-yl carbamate]
HIV-1 protease; at least 5 data points, standard error less than 7%
  Ki: 1380 pM

## COc1ccc(S(=O)(=O)N(CC(C)C)C[C@@H](O)[C@H](Cc2ccccc2)NC(=O)O[C@H]2CCO[C@H]3OC[C@H](OC)[C@H]32)cc1 [Inhibitor 30b, (3R,3aR,4S,7aS)-3-Methoxyhexahydro-2H-furo[2,3-b]pyran-4-yl (2S,3R)-3-hydroxy-4-(N-isobutyl-4-methoxyphenylsulfonamido)-1-phenylbutan-2-ylcarbamate]
HIV-1
  IC50: 200 pM
  antiviral potency: subnanomolar antiviral activity
HIV-1 protease
  Ki: 4.5 pM
HIV-1 protease; 30b vs 30a
  fold better enzymatic Ki compared to compound 30a: over 300 fold

## CO[C@H]1CO[C@@H]2OCC[C@H](OC(=O)N[C@@H](Cc3ccccc3)[C@H](O)CN(CC(C)C)S(=O)(=O)c3ccc(N)cc3)[C@@H]21 [Inhibitor 30c, (3R,3aR,4S,7aS)-3-Methoxyhexahydro-2H-furo[2,3-b]pyran-4-yl (2S,3R)-4-(4-amino-N-isobutylphenylsulfonamido)-3-hydroxy-1-phenylbutan-2-ylcarbamate]
HIV-1
  IC50: 15000 pM
HIV-1 protease
  Ki: 37 pM

## CCO[C@H]1CO[C@@H]2OCC[C@H](OC(=O)N[C@@H](Cc3ccccc3)[C@H](O)CN(CC(C)C)S(=O)(=O)c3ccc(OC)cc3)[C@@H]21 [Inhibitor 30d, (3R,3aR,4S,7aS)-3-Ethoxyhexahydro-2H-furo[2,3-b]pyran-4-yl (2S,3R)-3-hydroxy-4-(N-isobutyl-4-methoxyphenyl-sulfonamido)-1-phenylbutan-2-ylcarbamate]
HIV-1 protease
  Ki: 3.3 pM
  enzyme inhibitory activity: comparable enzyme inhibitory activity

## COc1ccc(S(=O)(=O)N(CC(C)C)C[C@@H](O)[C@H](Cc2ccccc2)NC(=O)O[C@H]2CCO[C@H]3OC[C@H](OCc4ccccc4)[C@H]32)cc1 [Inhibitor 30e, (3R,3aR,4S,7aS)-3-(Benzyloxy)hexahydro-2H-furo[2,3-b]pyran-4-yl (2S,3R)-3-hydroxy-4-(N-isobutyl-4-methoxy-phenylsulfonamido)-1-phenylbutan-2-ylcarbamate]
HIV-1
  IC50: 450 pM
HIV-1 protease
  Ki: 12 pM

## COc1ccc(S(=O)(=O)N(CC(C)C)C[C@@H](O)[C@H](Cc2ccccc2)NC(=O)O[C@H]2CCO[C@H]3OC[C@H](O)[C@H]32)cc1 [Inhibitor 30f, (3R,3aS,4S,7aS)-3-Hydroxyhexahydro-2H-furo[2,3-b]pyran-4-yl (2S,3R)-3-hydroxy-4-(N-isobutyl-4-methoxyphenyl-sulfonamido)-1-phenylbutan-2-ylcarbamate]
HIV-1
  IC50: 3150 pM
[1]; HIVDRV^RP20, preliminary assessment
  antiviral activity against resistant variant: maintained full antiviral activity
[1]; Human immunodeficiency virus 1, read-out: IC50 against HIVDRV^RP20
  IC50: 3300 pM
HIV-1 protease
  Ki: 60 pM
HIV-1 protease; enzyme inhibitory and antiviral activity, 30f vs 30b
  fold less potent than compound 30b: 10 fold

## CCN[C@H]1CO[C@@H]2OCC[C@H](OC(=O)N[C@@H](Cc3ccccc3)[C@H](O)CN(CC(C)C)S(=O)(=O)c3ccc(OC)cc3)[C@@H]21 [Inhibitor 30j, (3R,3aS,4S,7aS)-3-(Ethylamino)hexahydro-2H-furo[2,3-b]pyran-4-yl (2S,3R)-3-hydroxy-4-(N-isobutyl-4-methoxyphenylsulfonamido)-1-phenylbutan-2-ylcarbamate]
HIV-1
  antiviral potency: subnanomolar antiviral activity

## CCN[C@H]1CO[C@@H]2OCC[C@H](OC(=O)N[C@@H](Cc3ccccc3)[C@H](O)CN(CC(C)C)S(=O)(=O)c3ccc(N)cc3)[C@@H]21 [Inhibitor 30k, (3R,3aS,4S,7aS)-3-(Ethylamino)hexahydro-2H-furo[2,3-b]pyran-4-yl (2S,3R)-4-(4-amino-N-isobutylphenylsulfonamido)-3-hydroxy-1-phenylbutan-2-ylcarbamate]
HIV-1
  antiviral potency: significant reduction in antiviral potency

## CCCN[C@H]1CO[C@@H]2OCC[C@H](OC(=O)N[C@@H](Cc3ccccc3)[C@H](O)CN(CC(C)C)S(=O)(=O)c3ccc(OC)cc3)[C@@H]21 [Inhibitor 30l, (3R,3aS,4S,7aS)-3-(Propylamino)hexahydro-2H-furo[2,3-b]pyran-4-yl (2S,3R)-3-hydroxy-4-(N-isobutyl-4-methoxyphenylsulfonamido)-1-phenylbutan-2-ylcarbamate]
HIV-1; 30l vs 30j
  fold reduction in antiviral potency compared to 30j: ~3 fold

## COc1ccc(S(=O)(=O)N(CC(C)C)C[C@@H](O)[C@H](Cc2ccccc2)NC(=O)O[C@H]2CCO[C@H]3OC[C@H](N(C)C)[C@H]32)cc1 [Inhibitor 30m, (3R,3aS,4S,7aS)-3-(Dimethylamino)hexahydro-2H-furo[2,3-b]pyran-4-yl (2S,3R)-3-hydroxy-4-(N-isobutyl-4-methoxyphenylsulfonamido)-1-phenylbutan-2-ylcarbamate]
HIV-1; 30m vs 30i
  fold improved antiviral activity over 30i: 3 fold
HIV-1 protease
  enzyme inhibitory activity: reduction in enzyme Ki
